Measured values reported in paper PMC9090415, “Discovery of small molecule inhibitors of Plasmodium falciparum apicoplast DNA polymerase” (Journal of Enzyme Inhibition and Medicinal Chemistry, 2022).

Biological target: T1, bacteriophage T4 DNA polymerase (Enterobacteria phage T4, UniProt P04415)
T1 construct: made in house
T1 sequence (P04415 1-898): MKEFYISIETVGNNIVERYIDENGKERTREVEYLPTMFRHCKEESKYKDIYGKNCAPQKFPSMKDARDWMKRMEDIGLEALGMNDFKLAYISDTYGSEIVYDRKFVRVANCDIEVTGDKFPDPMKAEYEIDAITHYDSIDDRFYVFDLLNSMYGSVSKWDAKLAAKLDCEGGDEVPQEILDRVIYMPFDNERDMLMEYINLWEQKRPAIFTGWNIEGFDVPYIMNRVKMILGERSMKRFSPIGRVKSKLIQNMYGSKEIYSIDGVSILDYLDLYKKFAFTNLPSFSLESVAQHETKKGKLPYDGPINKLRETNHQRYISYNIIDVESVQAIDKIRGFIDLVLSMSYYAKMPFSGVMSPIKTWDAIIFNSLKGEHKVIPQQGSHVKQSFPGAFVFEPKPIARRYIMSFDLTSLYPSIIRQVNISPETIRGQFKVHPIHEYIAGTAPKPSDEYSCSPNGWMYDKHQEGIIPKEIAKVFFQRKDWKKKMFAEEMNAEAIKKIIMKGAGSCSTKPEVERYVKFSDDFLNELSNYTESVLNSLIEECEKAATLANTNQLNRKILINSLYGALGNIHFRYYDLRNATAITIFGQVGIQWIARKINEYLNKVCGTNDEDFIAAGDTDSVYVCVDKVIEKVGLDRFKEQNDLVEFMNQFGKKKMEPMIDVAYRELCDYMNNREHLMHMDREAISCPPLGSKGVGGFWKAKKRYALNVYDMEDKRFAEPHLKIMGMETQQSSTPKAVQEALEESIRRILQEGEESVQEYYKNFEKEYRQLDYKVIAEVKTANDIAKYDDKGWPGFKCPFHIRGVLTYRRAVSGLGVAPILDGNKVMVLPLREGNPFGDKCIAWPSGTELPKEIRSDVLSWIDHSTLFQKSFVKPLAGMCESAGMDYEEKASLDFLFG
Test: Counter-screen against bacteriophage T4 DNA polymerase
Type: biochemical
Settings: for % inhibition T4 10' 2.5 / % inhibition T4 10' 5 / % inhibition T4 10' 10 / % inhibition T4 10' 20 / % inhibition T4 10' 40 / % inhibition T4 10' 80: read at 10'; for % inhibition T4 70' 2.5 / % inhibition T4 70' 5 / % inhibition T4 70' 10 / % inhibition T4 70' 20 / % inhibition T4 70' 40 / % inhibition T4 70' 80: read at 70'; for % inhibition T4 130' 2.5 / % inhibition T4 130' 5 / % inhibition T4 130' 10 / % inhibition T4 130' 20 / % inhibition T4 130' 40 / % inhibition T4 130' 80: read at 130'; for % inhibition T4 40' 2.5 / % inhibition T4 40' 5 / % inhibition T4 40' 10 / % inhibition T4 40' 20 / % inhibition T4 40' 40 / % inhibition T4 40' 80: read at 40'; for % inhibition T4 90' 2.5 / % inhibition T4 90' 5 / % inhibition T4 90' 10 / % inhibition T4 90' 20 / % inhibition T4 90' 40 / % inhibition T4 90' 80: read at 90'; for % inhibition T4 180' 2.5 / % inhibition T4 180' 5 / % inhibition T4 180' 10 / % inhibition T4 180' 20 / % inhibition T4 180' 40 / % inhibition T4 180' 80: read at 180'
Protocol: Codon-optimized, exonuclease-deficient Pf-apPOL was overexpressed in E. coli BL21 (DE3) and purified as described. The protein was dialysed against two, 1-liter changes of 20 mM Tris-HCl (pH 8.0), 400 mM NaCl, and 20% glycerol. Plasmodium bergei and Babesia bovis apPOLs (Pb-apPOL and Bb-apPOL, respectively) were codon-optimized, expressed, and purified as for Pf-apPOL[15]. Bacteriophage T4 DNA polymerase was purified as described. The DNA oligonucleotides used to make the high-throughput substrate were obtained from Integrated DNA Technologies. Deoxynucleotides were purchased from Strategene. All other materials came from Fisher Scientific.
Each compound was tested in a dose-response format to determine IC50 values. […] T4 DNA polymerase can be produced in large quantities, and is in the same family (B-family) as the replicative human DNA polymerases (α, δ, and ε)[20].

Structure (SMILES): Cc1ccc(N2CCC(NC(=O)Cc3cccs3)C2=O)cc1C (stereo not drawn) [Molecule 57, O=C(NC1CCN(C1=O)c1ccc(c(c1)C)C)Cc1cccs1]
- % inhibition T4 10' 2.5 (DRC-1, concentration 2.5): -2.9635%
- % inhibition T4 10' 5 (DRC-1, concentration 5): 6.066%
- % inhibition T4 10' 10 (DRC-1, concentration 10): 19.8361%
- % inhibition T4 10' 20 (DRC-1, concentration 20): 23.1597%
- % inhibition T4 10' 40 (DRC-1, concentration 40): 29.7521%
- % inhibition T4 10' 80 (DRC-1, concentration 80): 29.7097%
- % inhibition T4 70' 2.5 (DRC-1, concentration 2.5): -3.783%
- % inhibition T4 70' 5 (DRC-1, concentration 5): 0.9049%
- % inhibition T4 70' 10 (DRC-1, concentration 10): 15.0423%
- % inhibition T4 70' 20 (DRC-1, concentration 20): 17.1422%
- % inhibition T4 70' 40 (DRC-1, concentration 40): 24.1448%
- % inhibition T4 70' 80 (DRC-1, concentration 80): 21.6253%
- % inhibition T4 130' 2.5 (DRC-1, concentration 2.5): -5.326%
- % inhibition T4 130' 5 (DRC-1, concentration 5): -0.359%
- % inhibition T4 130' 10 (DRC-1, concentration 10): 12.5508%
- % inhibition T4 130' 20 (DRC-1, concentration 20): 13.7416%
- % inhibition T4 130' 40 (DRC-1, concentration 40): 21.2189%
- % inhibition T4 130' 80 (DRC-1, concentration 80): 19.4508%
- % inhibition T4 10' 2.5 (DRC-2, concentration 2.5): 14%
- % inhibition T4 10' 5 (DRC-2, concentration 5): 12%
- % inhibition T4 10' 10 (DRC-2, concentration 10): 20%
- % inhibition T4 10' 20 (DRC-2, concentration 20): 23%
- % inhibition T4 10' 40 (DRC-2, concentration 40): 25%
- % inhibition T4 10' 80 (DRC-2, concentration 80): 26%
- % inhibition T4 40' 2.5 (DRC-2, concentration 2.5): 13%
- % inhibition T4 40' 5 (DRC-2, concentration 5): 12%
- % inhibition T4 40' 10 (DRC-2, concentration 10): 20%
- % inhibition T4 40' 20 (DRC-2, concentration 20): 27%
- % inhibition T4 40' 40 (DRC-2, concentration 40): 30%
- % inhibition T4 40' 80 (DRC-2, concentration 80): 35%
- % inhibition T4 90' 2.5 (DRC-2, concentration 2.5): 13%
- % inhibition T4 90' 5 (DRC-2, concentration 5): 11%
- % inhibition T4 90' 10 (DRC-2, concentration 10): 20%
- % inhibition T4 90' 20 (DRC-2, concentration 20): 26%
- % inhibition T4 90' 40 (DRC-2, concentration 40): 29%
- % inhibition T4 90' 80 (DRC-2, concentration 80): 37%
- % inhibition T4 180' 2.5 (DRC-2, concentration 2.5): 11%
- % inhibition T4 180' 5 (DRC-2, concentration 5): 10%
- % inhibition T4 180' 10 (DRC-2, concentration 10): 18%
- % inhibition T4 180' 20 (DRC-2, concentration 20): 25%
- % inhibition T4 180' 40 (DRC-2, concentration 40): 28%
- % inhibition T4 180' 80 (DRC-2, concentration 80): 37%

Structure (SMILES): Cc1ccsc1Cn1c(C)ccc1C [Molecule 70, Cc1ccsc1Cn1c(C)ccc1C]
- % inhibition T4 10' 2.5 (DRC-1, concentration 2.5): -4.493%
- % inhibition T4 10' 5 (DRC-1, concentration 5): -2.675%
- % inhibition T4 10' 10 (DRC-1, concentration 10): 9.004%
- % inhibition T4 10' 20 (DRC-1, concentration 20): 13.0915%
- % inhibition T4 10' 40 (DRC-1, concentration 40): 20.7391%
- % inhibition T4 10' 80 (DRC-1, concentration 80): -6.46%
- % inhibition T4 70' 2.5 (DRC-1, concentration 2.5): -3.335%
- % inhibition T4 70' 5 (DRC-1, concentration 5): -3.037%
- % inhibition T4 70' 10 (DRC-1, concentration 10): 6.944%
- % inhibition T4 70' 20 (DRC-1, concentration 20): 8.488%
- % inhibition T4 70' 40 (DRC-1, concentration 40): 14.2763%
- % inhibition T4 70' 80 (DRC-1, concentration 80): -12.9684%
- % inhibition T4 130' 2.5 (DRC-1, concentration 2.5): -4.899%
- % inhibition T4 130' 5 (DRC-1, concentration 5): -4.557%
- % inhibition T4 130' 10 (DRC-1, concentration 10): 3.714%
- % inhibition T4 130' 20 (DRC-1, concentration 20): 4.205%
- % inhibition T4 130' 40 (DRC-1, concentration 40): 10.2962%
- % inhibition T4 130' 80 (DRC-1, concentration 80): -25.7177%
- % inhibition T4 10' 2.5 (DRC-2, concentration 2.5): -7%
- % inhibition T4 10' 5 (DRC-2, concentration 5): -1.66%
- % inhibition T4 10' 10 (DRC-2, concentration 10): 10%
- % inhibition T4 10' 20 (DRC-2, concentration 20): 11%
- % inhibition T4 10' 40 (DRC-2, concentration 40): 14%
- % inhibition T4 10' 80 (DRC-2, concentration 80): 7.37%
- % inhibition T4 40' 2.5 (DRC-2, concentration 2.5): -7%
- % inhibition T4 40' 5 (DRC-2, concentration 5): -2%
- % inhibition T4 40' 10 (DRC-2, concentration 10): 10%
- % inhibition T4 40' 20 (DRC-2, concentration 20): 11%
- % inhibition T4 40' 40 (DRC-2, concentration 40): 14%
- % inhibition T4 40' 80 (DRC-2, concentration 80): 7%
- % inhibition T4 90' 2.5 (DRC-2, concentration 2.5): -5%
- % inhibition T4 90' 5 (DRC-2, concentration 5): -2.51%
- % inhibition T4 90' 10 (DRC-2, concentration 10): 8%
- % inhibition T4 90' 20 (DRC-2, concentration 20): 9%
- % inhibition T4 90' 40 (DRC-2, concentration 40): 12%
- % inhibition T4 90' 80 (DRC-2, concentration 80): 5%
- % inhibition T4 180' 2.5 (DRC-2, concentration 2.5): -7%
- % inhibition T4 180' 5 (DRC-2, concentration 5): -9%
- % inhibition T4 180' 10 (DRC-2, concentration 10): 1.9%
- % inhibition T4 180' 20 (DRC-2, concentration 20): 4%
- % inhibition T4 180' 40 (DRC-2, concentration 40): 8%
- % inhibition T4 180' 80 (DRC-2, concentration 80): 1.21%

Structure (SMILES): Cc1nc(/N=N/c2ccc(C(=O)[O-])cc2)c(COP(=O)([O-])[O-])c(C=O)c1O.[Na+].[Na+].[Na+] [KU0261395]
- % inhibition T4 10' (DRC-2, concentration 2.5): -16%
- % inhibition T4 10' (DRC-2, concentration 5): -9%
- % inhibition T4 10' (DRC-2, concentration 40): -10%
- % inhibition T4 10' (DRC-2, concentration 80): -18%
- % inhibition T4 40' (DRC-2, concentration 2.5): -20%
- % inhibition T4 40' (DRC-2, concentration 5): -16%
- % inhibition T4 40' (DRC-2, concentration 80): -18%
- % inhibition T4 90' (DRC-2, concentration 2.5): -20%
- % inhibition T4 90' (DRC-2, concentration 5): -18%
- % inhibition T4 90' (DRC-2, concentration 10): -9%
- % inhibition T4 90' (DRC-2, concentration 40): -11%
- % inhibition T4 180' (DRC-2, concentration 20): -9%
- % inhibition T4 180' (DRC-2, concentration 40): -11%
- % inhibition T4 180' (DRC-2, concentration 80): -10%

Structure (SMILES): CCC(C)NC(=O)c1cc(NC(C)=O)cc2nc(C)ccc12 (stereo not drawn) [KU0206314]
- % inhibition T4 10' (DRC-2, concentration 80): 42%
- % inhibition T4 90' (DRC-2, concentration 2.5): 13%
- % inhibition T4 90' (DRC-2, concentration 5): 13%
- % inhibition T4 90' (DRC-2, concentration 80): 42%
